Tests used:
[1] = target: T1, Tyrosine-protein phosphatase non-receptor type 1 (Mus musculus, UniProt P35821); assay: Binding affinity for mouse protein-tyrosine phosphatase 1B (PTP1B) expressed in COS 7 cells; format: cell-based
T1 sequence (P35821 whole entry): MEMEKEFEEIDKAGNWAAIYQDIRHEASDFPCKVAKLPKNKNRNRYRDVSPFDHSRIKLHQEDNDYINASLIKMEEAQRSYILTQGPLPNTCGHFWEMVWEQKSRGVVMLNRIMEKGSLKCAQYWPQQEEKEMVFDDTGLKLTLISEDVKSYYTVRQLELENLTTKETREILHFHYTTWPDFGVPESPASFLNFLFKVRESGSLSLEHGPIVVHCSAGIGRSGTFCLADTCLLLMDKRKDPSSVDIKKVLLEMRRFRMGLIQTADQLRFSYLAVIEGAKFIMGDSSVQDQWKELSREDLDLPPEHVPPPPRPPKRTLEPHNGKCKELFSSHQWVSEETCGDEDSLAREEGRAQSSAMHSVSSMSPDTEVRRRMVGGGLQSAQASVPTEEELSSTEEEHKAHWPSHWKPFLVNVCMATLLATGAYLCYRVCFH

[2] = target: T2, Tyrosine-protein phosphatase non-receptor type 2 (Homo sapiens, UniProt P17706); assay: Binding affinity for T-cell Protein tyrosine phosphatase (TCPTP)
T2 sequence (P17706 whole entry): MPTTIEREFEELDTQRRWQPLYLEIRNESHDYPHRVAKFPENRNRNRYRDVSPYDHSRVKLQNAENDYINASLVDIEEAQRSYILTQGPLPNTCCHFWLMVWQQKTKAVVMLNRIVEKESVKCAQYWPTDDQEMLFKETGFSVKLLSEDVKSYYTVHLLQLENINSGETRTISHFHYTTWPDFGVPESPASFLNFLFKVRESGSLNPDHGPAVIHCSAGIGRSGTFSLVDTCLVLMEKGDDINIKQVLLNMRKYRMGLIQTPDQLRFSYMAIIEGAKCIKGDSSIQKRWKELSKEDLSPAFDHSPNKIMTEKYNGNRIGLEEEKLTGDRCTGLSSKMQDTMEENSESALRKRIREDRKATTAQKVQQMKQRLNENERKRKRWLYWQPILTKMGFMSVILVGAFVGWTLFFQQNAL

Ki [1] [µM]	Ki [2] [µM]	SMILES
0.92	19.2	COC(=O)c1c(O)cccc1OC/C=C/c1cccc(-c2onc(C(=O)O)c2CO)c1
11.5		COC(=O)c1c(O)cccc1OC/C=C/c1ccc2c(c1)-c1onc(C(=O)O)c1CC2
2.1		COC(=O)c1c(O)cccc1OC/C=C/c1cccc(-c2onc(C(=O)O)c2N)c1
23		COC(=O)c1c(O)cccc1OCCCc1cccc(-c2cc(C(=O)O)no2)c1
216		COC(=O)c1c(O)cccc1OCC(=O)Nc1cccc(-c2cc(C(=O)O)no2)c1
122		COC(=O)c1c(O)cccc1OCC(O)Cc1cccc(-c2cc(C(=O)O)no2)c1 (stereo not drawn)
60.3		COC(=O)c1c(O)cccc1OCCNc1cccc(-c2cc(C(=O)O)no2)c1

Source: ChEMBL document CHEMBL1138021, “Isoxazole carboxylic acids as protein tyrosine phosphatase 1B (PTP1B) inhibitors” (Bioorg Med Chem Lett, 2004)
